# Like-named read-outs stand apart in the source and are kept apart here.
# Tests used:
# [1] = tested on: Apomorphine-induced agitation in rats; test: Inhibition of apomorphine-induced agitation in rats in combination with Compound A and Compound B (FIGS. 4, 5); assay type: in vivo; details: Rattus norvegicus, sc
# Procedure: Shown are individual scores (open and closed circles for PDE2-i at 0 and 10 mg/kg, respectively) and median scores (horizontal lines) for agitation per dose group. In FIG. 4: * p<0.05, ** p<0.01, *** p<0.001 (Bonferroni posttests 0 vs 10 mg/kg).
# In FIG. 5: * p<0.05 (Dunnett's Multiple Comparison Test vs. 0 mg/kg)
# Shown are individual scores (open and closed circles for PDE2-i at 0 and 10 mg/kg, respectively) and median scores (horizontal lines) for agitation per dose group. […] This is also reflected in the listed ED50 values.
# [2] = tested on: d-Amphetamine-induced hyperlocomotion in rats; test: Inhibition of d-amphetamine-induced hyperlocomotion in rats in combination with Compound A and Compound B (FIGS. 9, 10); assay type: in vivo; details: Rattus norvegicus, sc
# Procedure: Shown are individual values (open and closed circles for PDE2-i at 0 and 10 mg/kg, respectively) and median values (horizontal lines) for distance traveled per dose group. The dotted horizontal lines represent the criteria adopted for drug-induced effects (<5500 and <1100 cm). In FIG. 9: * p<0.05, ** p<0.01, *** p<0.001 (Bonferroni posttests 0 vs 10 mg/kg).
# The dotted horizontal lines represent the critical levels for drug-induced effects (<5500 cm and <1100 cm).
# Shown are individual values (open and closed circles for PDE2-i at 0 and 10 mg/kg, respectively) and median values (horizontal lines) for distance traveled per dose group. The dotted horizontal lines represent the criteria adopted for drug-induced effects (<5500 and <1100 cm). […] This is also reflected in the listed ED50 values.
# [3] = target: Rat recombinant PDE10A (rPDE10A2) (Rattus norvegicus (Rat), UniProt Q9QYJ6); test: In vitro assay PDE10A (SPA, 3H-cAMP); assay type: biochemical
# [4] = tested on: Apomorphine-induced agitation in rats; test: Inhibition of apomorphine-induced agitation in rats (APO)
# [5] = tested on: Apomorphine-induced agitation in rats; test: Inhibition of apomorphine-induced agitation in rats in combination with MP-10; assay type: in vivo, rat; details: SC, MP-10 (0.63 mg/kg) + apomorphine (1.0 mg/kg) i.v.
# Procedure: Inhibition of Apomorphine-induced Agitation in Rats in combination with MP-10 but the animals were simultaneously challenged with MP-10 (0.63 mg/kg) in addition to apomorphine (1.0 mg/kg) via one injection (2 ml/kg, i.v.), at a fixed time interval (standard 1 h) after s.c. or p.o. dosing of test compound or solvent. Twelve times, every 5 min, the intensity of agitation was scored 0 to 3.
# [6] = tested on: d-Amphetamine-induced hyperlocomotion in rats; test: d-Amphetamine-induced hyperlocomotion in rats: potentiation of the effect of MP-10; assay type: in vivo, rat; details: d-amphetamine (1.25 mg/kg, s.c.) + MP-10 (2.5 mg/kg, s.c.)
# [7] = SC, lowest dose at which >=67% tested animals respond
# Sequence of Rat recombinant PDE10A (rPDE10A2) (Q9QYJ6 whole entry): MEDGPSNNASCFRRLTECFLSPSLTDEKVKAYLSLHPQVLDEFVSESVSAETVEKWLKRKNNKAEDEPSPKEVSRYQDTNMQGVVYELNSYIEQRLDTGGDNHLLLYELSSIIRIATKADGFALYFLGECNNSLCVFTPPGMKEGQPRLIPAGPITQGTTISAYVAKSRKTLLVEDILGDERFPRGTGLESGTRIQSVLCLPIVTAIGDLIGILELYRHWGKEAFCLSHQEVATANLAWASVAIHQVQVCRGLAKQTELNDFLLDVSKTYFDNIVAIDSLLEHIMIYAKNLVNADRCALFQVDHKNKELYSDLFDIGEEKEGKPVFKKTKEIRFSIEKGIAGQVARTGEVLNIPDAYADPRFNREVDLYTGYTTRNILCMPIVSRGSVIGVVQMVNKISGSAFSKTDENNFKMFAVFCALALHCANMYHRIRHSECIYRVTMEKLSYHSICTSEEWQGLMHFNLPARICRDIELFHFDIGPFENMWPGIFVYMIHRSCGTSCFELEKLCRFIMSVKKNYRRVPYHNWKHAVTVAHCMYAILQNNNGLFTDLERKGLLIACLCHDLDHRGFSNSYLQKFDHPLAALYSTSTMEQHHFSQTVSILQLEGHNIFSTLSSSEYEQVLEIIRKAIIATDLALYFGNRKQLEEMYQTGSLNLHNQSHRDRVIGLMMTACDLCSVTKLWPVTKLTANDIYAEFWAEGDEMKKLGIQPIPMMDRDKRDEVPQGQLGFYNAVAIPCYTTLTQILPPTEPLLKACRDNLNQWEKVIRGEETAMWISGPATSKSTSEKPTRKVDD
Structure (SMILES),PIC50 PDE10 ([3]; -log IC50 expressed in mol/L),Dose at max effect ([4]; SC),"Max effect (lowest median cumulative agitation score) ([4]; SC, at the dose at max effect)","LAD (lowest active dose) [4, 7]",further results
COCCc1ccc(-c2c(C)nc3c(N4CCOCC4)ccnn23)cn1 [Compound A],–,–,–,–,"ED50 ([1]; read-out: ED50 (95% confidence limits) for reducing agitation score to <5, PDE10-i s.c., -1 h, co-treatment with B-1a 0 mg/kg): ≥ 40 mg/kg; ED50 ([1]; read-out: ED50 (95% confidence limits) for reducing agitation score to <5, PDE10-i s.c., -1 h, co-treatment with B-1a 10 mg/kg s.c.): 12.4 mg/kg; ED50 ([1]; read-out: ED50 (95% confidence limits) for reducing agitation score to <10, PDE10-i s.c., -1 h, co-treatment with B-1a 0 mg/kg): 16.3 mg/kg; ED50 ([1]; read-out: ED50 (95% confidence limits) for reducing agitation score to <10, PDE10-i s.c., -1 h, co-treatment with B-1a 10 mg/kg s.c.): 6.2 mg/kg; ED50 ([1]; read-out: ED50 (95% confidence limits) for reducing agitation score to <21, PDE10-i s.c., -1 h, co-treatment with B-1a 0 mg/kg): 2.71 mg/kg; ED50 ([1]; read-out: ED50 (95% confidence limits) for reducing agitation score to <21, PDE10-i s.c., -1 h, co-treatment with B-1a 10 mg/kg s.c.): 3.1 mg/kg; ED50 ([2]; read-out: ED50 (95% confidence limits) for reducing distance traveled to <1100 cm, PDE10-i s.c., -1 h, co-treatment with B-1a 0 mg/kg): > 40 mg/kg; ED50 ([2]; read-out: ED50 (95% confidence limits) for reducing distance traveled to <1100 cm, PDE10-i s.c., -1 h, co-treatment with B-1a 10 mg/kg s.c.): 6.2 mg/kg; ED50 ([2]; read-out: ED50 (95% confidence limits) for reducing distance traveled to <5500 cm, PDE10-i s.c., -1 h, co-treatment with B-1a 0 mg/kg): 0.89 mg/kg; ED50 ([2]; read-out: ED50 (95% confidence limits) for reducing distance traveled to <5500 cm, PDE10-i s.c., -1 h, co-treatment with B-1a 10 mg/kg s.c.): 0.67 mg/kg"
"CCCCOc1ccc(Cl)c(-c2nnc3c(C)nc4ccc(CN5CCOCC5)cc4n23)c1.Cl [Compound B-2, 1-(5-Butoxy-2-chlorophenyl)-4-methyl-8-(morpholin-4-ylmethyl) [1,2,4]triazolo-[4,3-a]quinoxaline hydrochloride]",5.79,–,–,–,–
"CCNCc1ccc2nc(C)c3nnc(-c4ccccc4Cl)n3c2c1 [Compound B-4, N-{[1-(2-Chlorophenyl)-4-methyl[1,2,4]triazolo[4,3-a]quinoxalin-8-yl]methyl}-ethanamine]",6.8,10,21,>10,–
"Cc1nc2ccc(CN3CCOCC3)cc2n2c(-c3c(F)cccc3Cl)nnc12 [Compound B-5, 1-(2-Chloro-6-fluorophenyl)-4-methyl-8-(morpholin-4-ylmethyl) [1,2,4]triazolo[4,3-a]quinoxaline]",–,40,1,0.63,–
Cc1nc2ccc(CN3CCOCC3)cc2n2c(-c3cc(OC(C)C)ccc3Cl)nnc12 [Compound B-6],5.73,–,–,–,"Inh. of agitation < 10 Effect (cumulative agitation score) ([5]; Time 60, dose 2.5): 13; Inh. of agitation < 10 Effect (cumulative agitation score) ([5]; Time 60, dose 10): 1; Distance Total <2500 cm Effect ([6]; PO, Time -60, dose 10): 5033 cm; Distance Total <2500 cm Effect ([6]; SC, Time -60, dose 0.63): 3096 cm; Distance Total <2500 cm Effect ([6]; SC, Time -60, dose 2.5): 1206 cm; Distance Total <2500 cm Effect ([6]; SC, Time -60, dose 10): 743.7 cm"
CCOc1ccc(Cl)c(-c2nnc3c(C)nc4ccc(CN5CCOCC5)cc4n23)c1 [Compound B-7],6.58,10,24,>10,–
CCCOc1ccc(Cl)c(-c2nnc3c(C)nc4ccc(CN5CCOCC5)cc4n23)c1 [Compound B-8],6.49,10,23,>10,–
Cc1nc2ccc(CN3CCOCC3)cc2n2c(-c3cc(F)ccc3Cl)nnc12 [Compound B-9],7.07,10,9,–,"LAD (lowest active dose) ([4]; rat, in vivo): 2.5"
COc1ccc(Cl)c(-c2nnc3c(C)nc4ccc(CN5CCOCC5)cc4n23)c1 [Compound B-10],6.98,–,–,–,"Dose at Max Effect ([4]; PO): 10; Max effect (lowest median cumulative agitation score) ([4]; PO, at the dose of column Dose at Max Effect): 21; LAD (lowest active dose) ([4]; rat, in vivo): >10"
COc1cncc(-c2nnc3c(C)nc4ccc(CN5CCOCC5)cc4n23)c1 [Compound B-12],6.57,10,21,>10,–
Cc1nc2ccc(CN(C)C)cc2n2c(-c3ccccc3Cl)nnc12 [Compound B-13],6.97,10,20.5,–,"LAD (lowest active dose) ([4]; rat, in vivo): >10"
CCCOc1ccc(Cl)c(-c2nnc3c(C)nc4ccc(CNCC)cc4n23)c1 [Compound B-14],–,–,–,–,PIC50 PDE10 [3]: 5.75
CCCOc1ccc(Cl)c(-c2nnc3c(C)nc4ccc(CN(C)C)cc4n23)c1 [Compound B-15],–,–,–,–,PIC50 PDE10 [3]: 5.83
CCCOc1cncc(-c2nnc3c(C)nc4ccc(CN5CCOCC5)cc4n23)c1 [Compound B-16],5.21,–,–,–,–
Cc1nc2ccc(CN(C)C)cc2n2c(-c3cc(OC(C)C)ccc3Cl)nnc12 [Compound B-17],–,–,–,–,"PIC50 PDE10 [3]: 5.8; Inh. of agitation < 10 Effect (cumulative agitation score) ([5]; Time 60, dose 10): 12; Distance Total <2500 cm Effect ([6]; SC, Time -60, dose 2.5): 4133 cm; Distance Total <2500 cm Effect ([6]; SC, Time -60, dose 10): 1721 cm"

# From patent publication US9669035B2, “Combinations comprising PDE 2 inhibitors such as 1-aryl-4-methyl-[1,2,4]triazolo-[4,3-A]]quinoxaline compounds and PDE 10 inhibitors for use in the treatment of neurological of metabolic disorders” (Janssen Pharmaceutica NV, priority 2012, dated 2017)
